Results: patent publication US10023592B2, “Bromodomain inhibitors” (Celgene Quanticel Research, Inc., priority 2013, dated 2018)

Columns and labels:
[1] = system: Raji, human Burkitts lymphoma cells; assay: Cell-MTS proliferation assay, Raji; assay type: cell-based; details: Homo sapiens, 168 hr
Summary of the method: (§1)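 Seed: Raji 15,000, HL-60 5,000, NCI-H460 3,000 cells/96-well. +24 hr: 11-pt compound dilution, 100 μM–2.0 nM final. 7 d culture, MTS reagent, read OD490; IC50 vs DMSO, background subtracted.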

[2] = system: HL-60, human proleukemia cells; assay: Cell-MTS proliferation assay, HL-60; assay type: cell-based; details: Homo sapiens, 168 hr
Summary of the method: as §1

BRD4(BD1) = BRD4(BD1) (Homo sapiens (Human), UniProt O60885); assay: In vitro enzyme inhibition assay (BRD4 AlphaScreen); assay type: binding
Summary of the method: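 His-tagged BRD4 tested by AlphaScreen for binding of biotinylated H4K5/8/12/16-tetraacetyl peptide. After 20 min at room temperature, streptavidin donor and nickel chelate acceptor beads added (5 μg/mL final each). IC50 determined.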

[3] = system: NCI-H460, human non-small cell lung cancer cells; assay: Cell-MTS proliferation assay, NCI-H460; assay type: cell-based; details: Homo sapiens, 168 hr
Summary of the method: as §1

[4] = Cell-MTS proliferation, Raji cells
[5] = Cell-MTS proliferation, HL-60 cells
[6] = in vitro enzyme inhibition assay
[7] = Cell-MTS proliferation, NCI-H460 cells
[8] = NCI-H460, Cell-MTS proliferation
[9] = Raji, Cell-MTS, class symbols A/B/C
[10] = HL-60, Cell-MTS, class symbols A/B/C
[11] = NCI-H460, Cell-MTS, class symbols A/B/C

Row | Compound | IC50 [1, 4] | IC50 [2, 5] | IC50 (BRD4(BD1); [6]) | IC50 [3, 7] | IC50 ([1]; Raji, Cell-MTS proliferation) | IC50 ([2]; HL-60, Cell-MTS proliferation) | IC50 [3, 8] | IC50 [1, 9] | IC50 [2, 10] | IC50 (BRD4(BD1); class symbols A/B/C) | IC50 [3, 11]
1 | CCn1cc(-c2cc(CS(C)(=O)=O)ccc2Oc2ccc(F)cc2F)cc(C)c1=O [Example 429, 5-[2-(2,4-difluorophenoxy)-5-(methylsulfonylmethyl)phenyl]-1-ethyl-3-methylpyridin-2-one] | < 500 nM | < 500 nM | < 500 nM | > 5000 nM | – | – | – | – | – | – | –
2 | Cc1cc(-c2cc(S(C)(=O)=O)ccc2OCC2CC2)cn(Cc2cocn2)c1=O [Example 246, 5-[2-(cyclopropylmethoxy)-5-methylsulfonylphenyl]-3-methyl-1-(1,3-oxazol-4-ylmethyl)pyridin-2-one] | – | – | 500 to 5000 nM | – | > 5000 nM | > 5000 nM | > 5000 nM | – | – | – | –
3 | CCS(=O)(=O)Nc1ccc(OC2CCCOC2)c(-c2cc(C)c(=O)n(C)c2)c1 (stereo not drawn) [Example 448, N-[3-(1,5-dimethyl-6-oxopyridin-3-yl)-4-(oxan-3-yloxy)phenyl]ethanesulfonamide] | < 500 nM | < 500 nM | < 500 nM | > 5000 nM | – | – | – | – | – | – | –
4 | Cc1cc(-c2cn(CS(C)(=O)=O)c(=O)cc2OCC2CC2)cn(C)c1=O [Example 382, 5-[4-(cyclopropylmethoxy)-1-(methylsulfonylmethyl)-6-oxopyridin-3-yl]-1,3-dimethylpyridin-2-one] | 500 to 5000 nM | < 500 nM | < 500 nM | > 5000 nM | – | – | – | – | – | – | –
5 | Cn1cc(-c2cc(NS(C)(=O)=O)ccc2Oc2ccc(F)cc2F)n2cncc2c1=O [Example 367, N-[4-(2,4-difluorophenoxy)-3-(7-methyl-8-oxoimidazo[1,5-a]pyrazin-5-yl)phenyl]methanesulfonamide] | – | – | < 500 nM | – | < 500 nM | < 500 nM | > 5000 nM | – | – | – | –
6 | CCS(=O)(=O)c1ccc(OCC2CC2)c(-c2cc(C)c(=O)n(C3CC3)c2)c1 [Example 251, 1-cyclopropyl-5-[2-(cyclopropylmethoxy)-5-ethylsulfonylphenyl]-3-methylpyridin-2-one] | – | – | < 500 nM | – | 500 to 5000 nM | < 500 nM | > 5000 nM | – | – | – | –
7 | CCS(=O)(=O)Nc1ccc(Oc2ccc(F)cc2F)c(-c2ccc(=O)n(C)c2)c1 [Example 99, N-[4-(2,4-difluorophenoxy)-3-(1-methyl-6-oxopyridin-3-yl)phenyl]ethanesulfonamide] | – | – | – | – | – | – | – | < 500 nM | < 500 nM | < 500 nM | > 5000 nM
8 | CCS(=O)(=O)c1ccc(OCC2CC2)c(-c2cn(C)c(=O)c3ccccc23)c1 [Example 135, 4-[2-(cyclopropylmethoxy)-5-ethylsulfonylphenyl]-2-methylisoquinolin-1-one] | – | – | – | – | – | – | – | < 500 nM | < 500 nM | < 500 nM | 500 to 5000 nM

Next, values leading:

Row | IC50 [1, 4] | IC50 [2, 5] | IC50 (BRD4(BD1); [6]) | IC50 [3, 7] | IC50 ([1]; Raji, Cell-MTS proliferation) | IC50 ([2]; HL-60, Cell-MTS proliferation) | IC50 [3, 8] | IC50 [1, 9] | IC50 [2, 10] | IC50 (BRD4(BD1); class symbols A/B/C) | IC50 [3, 11] | Compound
9 | < 500 nM | < 500 nM | < 500 nM | > 5000 nM | – | – | – | – | – | – | – | CCS(=O)(=O)Nc1ccc(O[C@H]2CC[C@H](O)CC2)c(-c2cc(C)c(=O)n(C)c2)c1 [Example 430, N-[3-(1,5-dimethyl-6-oxopyridin-3-yl)-4-(trans-4-hydroxycyclohexyl)oxyphenyl]ethanesulfonamide]
10 | – | – | – | – | – | – | – | < 500 nM | < 500 nM | < 500 nM | 500 to 5000 nM | CCS(=O)(=O)Nc1ccc(Oc2ccc(F)cc2F)c(-c2cc(Cl)c(=O)n(C)c2)c1 [Example 134, N-[3-(5-chloro-1-methyl-6-oxopyridin-3-yl)-4-(2,4-difluorophenoxy)phenyl]ethanesulfonamide]
11 | – | – | < 500 nM | – | 500 to 5000 nM | 500 to 5000 nM | > 5000 nM | – | – | – | – | Cc1cc(-c2cc(OCC3CC3)cc(S(C)(=O)=O)c2)cn(C)c1=O [Example 325, 5-[3-(cyclopropylmethoxy)-5-methylsulfonylphenyl]-1,3-dimethylpyridin-2-one]
12 | – | – | < 500 nM | – | < 500 nM | < 500 nM | > 5000 nM | – | – | – | – | Cn1cc(-c2nc(S(C)(=O)=O)ccc2OCC2CC2)c2ccc(F)cc2c1=O [Example 201, 4-[3-(cyclopropylmethoxy)-6-methylsulfonylpyridin-2-yl]-7-fluoro-2-methylisoquinolin-1-one]
